According to ChEMBL document CHEMBL5614405 (J Med Chem, 2024):
One block for each compound: values may come before it. The source made the active and inactive calls. The rule behind the calls is not given here.

Columns and labels:
[1] = target: Rho-associated protein kinase 2 (Homo sapiens, UniProt O75116); assay: Inhibition of ROCK2 (unknown origin) incubated for 60 mins in presence of ATP by mobility shift assay
[2] = Toxicity in chicken embryo chorioallantoic membrane assessed as irritation score at 1.55 mM measured after 5 mins by microscopic analysis relative to Netarsudil; format: tissue-based, Gallus gallus; settings: in vivo, 1550 µM
Oryctolagus cuniculus [3] = assay: Anti-glaucoma activity in methylcellulose-induced acute intraocular hypertensive New Zealand rabbit model assessed as reduction in intraocular pressure at 1.55 mM,TOP administration on conjunctival sac measured for 1 to 4 hrs; format: functional, organism-based; settings: time 1-4 hrs
[4] = target: Rho-associated protein kinase 1 (Homo sapiens, UniProt Q13464); assay: Inhibition of ROCK1 (unknown origin) incubated for 10 mins in presence of ATP by mobility shift assay
[5] = Toxicity in New Zealand rabbit assessed as appearance of conjunctival congestion by measuring ocular irritation score at 0.028 % TOP administration on left eye measured after 6 days by draize eye irritation test; format: tissue-based, Oryctolagus cuniculus; settings: in vivo, topical_or_ocular, 144 h, time 6 day
[6] = Toxicity in New Zealand rabbit assessed as appearance of conjunctival congestion by measuring ocular irritation score at 0.028 % TOP administration on left eye measured after 3 days by draize eye irritation test; format: tissue-based, Oryctolagus cuniculus; settings: in vivo, topical_or_ocular, 72 h, time 3 day
[7] = Toxicity in New Zealand rabbit assessed as appearance of conjunctival congestion by measuring ocular irritation score at 0.028 % TOP administration on left eye measured after 7 days by draize eye irritation test; format: tissue-based, Oryctolagus cuniculus; settings: in vivo, topical_or_ocular, 168 h, time 7 day
[8] = Toxicity in New Zealand rabbit assessed as appearance of conjunctival congestion by measuring incidence of ocular irritation at 0.028 % TOP administration on left eye measured for 5 days by draize eye irritation test; format: tissue-based, Oryctolagus cuniculus; settings: in vivo, topical_or_ocular, 120 h, time 5 day
[9] = Toxicity in New Zealand rabbit assessed as appearance of conjunctival congestion by measuring ocular irritation score at 0.028 % TOP administration on left eye measured after 5 days by draize eye irritation test; format: tissue-based, Oryctolagus cuniculus; settings: in vivo, topical_or_ocular, 120 h, time 5 day
[10] = Toxicity in chicken embryo chorioallantoic membrane assessed as irritation score at 1.55 mM measured after 5 mins in presence of methyl 3-(nitrooxy)benzoate by microscopic analysis; format: tissue-based, Gallus gallus; settings: in vivo, 1550 µM
Mus musculus [11] = assay: Anti-glaucoma activity in magnetic microbead induced occlusion C57BL/6J mouse model assessed as reduction in intraocular pressure at 441.27 uM,TOP administration on right eye measured after 1 hr by tonometric analysis; format: functional, organism-based
[12] = Toxicity in New Zealand rabbit assessed as appearance of conjunctival congestion by measuring ocular irritation score at 0.028 % TOP administration on left eye measured after 1 day by draize eye irritation test; format: tissue-based, Oryctolagus cuniculus; settings: in vivo, topical_or_ocular, 24 h
[13] = Toxicity in New Zealand rabbit assessed as appearance of conjunctival congestion by measuring ocular irritation score at 0.028 % TOP administration on left eye measured after 4 days by draize eye irritation test; format: tissue-based, Oryctolagus cuniculus; settings: in vivo, topical_or_ocular, 96 h, time 4 day
[14] = Toxicity in New Zealand rabbit assessed as appearance of conjunctival congestion by measuring ocular irritation score at 0.028 % TOP administration on left eye measured after 2 days by draize eye irritation test; format: tissue-based, Oryctolagus cuniculus; settings: in vivo, topical_or_ocular, 48 h, time 2 day
Mus musculus [15] = assay: Anti-glaucoma activity in magnetic microbead induced occlusion C57BL/6J mouse model assessed as increase in retinal ganglion cell population at 441.27 uM,TOP administrated on right eye thrice a day for 21 days by immunofluorescence based confocal microscopic analysis; format: functional, organism-based; settings: time 21.0 day
Oryctolagus cuniculus [16] = assay: Anti-glaucoma activity in methylcellulose-induced acute intraocular hypertensive New Zealand rabbit model assessed as reduction in intraocular pressure at 1.55 mM,TOP administration on conjunctival sac measured upto 24 hrs relative to Netarsudil; format: functional, organism-based

Sequence of Rho-associated protein kinase 2 (O75116 whole entry): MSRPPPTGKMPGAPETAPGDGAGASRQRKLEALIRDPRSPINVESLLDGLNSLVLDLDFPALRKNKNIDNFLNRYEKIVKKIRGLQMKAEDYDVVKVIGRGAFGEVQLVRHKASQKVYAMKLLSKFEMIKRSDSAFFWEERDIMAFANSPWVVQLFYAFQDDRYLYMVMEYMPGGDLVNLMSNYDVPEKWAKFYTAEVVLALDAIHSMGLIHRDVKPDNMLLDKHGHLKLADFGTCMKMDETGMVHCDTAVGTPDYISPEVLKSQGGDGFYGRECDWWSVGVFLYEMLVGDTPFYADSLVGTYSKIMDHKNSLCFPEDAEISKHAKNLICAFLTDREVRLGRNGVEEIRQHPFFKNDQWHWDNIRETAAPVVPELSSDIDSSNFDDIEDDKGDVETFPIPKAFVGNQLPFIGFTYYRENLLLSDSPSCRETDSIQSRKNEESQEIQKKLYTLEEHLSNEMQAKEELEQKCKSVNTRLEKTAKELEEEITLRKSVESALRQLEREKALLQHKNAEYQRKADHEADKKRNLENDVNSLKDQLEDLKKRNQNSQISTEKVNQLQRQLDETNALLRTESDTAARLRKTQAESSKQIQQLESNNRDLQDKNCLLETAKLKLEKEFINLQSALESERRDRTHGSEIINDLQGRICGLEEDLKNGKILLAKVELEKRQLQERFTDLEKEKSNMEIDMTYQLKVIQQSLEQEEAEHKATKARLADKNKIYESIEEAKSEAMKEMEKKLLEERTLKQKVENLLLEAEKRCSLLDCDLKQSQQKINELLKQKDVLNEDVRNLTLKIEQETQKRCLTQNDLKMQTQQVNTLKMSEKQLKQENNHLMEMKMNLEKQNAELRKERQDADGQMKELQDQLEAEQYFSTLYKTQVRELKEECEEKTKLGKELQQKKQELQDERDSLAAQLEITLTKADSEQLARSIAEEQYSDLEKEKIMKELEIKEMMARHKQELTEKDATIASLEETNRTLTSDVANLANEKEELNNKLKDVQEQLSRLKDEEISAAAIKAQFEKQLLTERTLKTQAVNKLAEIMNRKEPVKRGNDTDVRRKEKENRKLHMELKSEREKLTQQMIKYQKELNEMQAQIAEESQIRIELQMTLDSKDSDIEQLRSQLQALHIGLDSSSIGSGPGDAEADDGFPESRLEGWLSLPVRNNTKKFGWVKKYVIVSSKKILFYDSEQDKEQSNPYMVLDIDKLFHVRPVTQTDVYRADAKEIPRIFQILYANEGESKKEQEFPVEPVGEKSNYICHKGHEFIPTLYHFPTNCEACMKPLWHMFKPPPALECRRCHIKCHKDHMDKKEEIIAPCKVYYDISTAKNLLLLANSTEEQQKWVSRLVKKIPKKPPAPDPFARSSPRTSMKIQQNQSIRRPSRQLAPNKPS
Sequence of Rho-associated protein kinase 1 (Q13464 whole entry): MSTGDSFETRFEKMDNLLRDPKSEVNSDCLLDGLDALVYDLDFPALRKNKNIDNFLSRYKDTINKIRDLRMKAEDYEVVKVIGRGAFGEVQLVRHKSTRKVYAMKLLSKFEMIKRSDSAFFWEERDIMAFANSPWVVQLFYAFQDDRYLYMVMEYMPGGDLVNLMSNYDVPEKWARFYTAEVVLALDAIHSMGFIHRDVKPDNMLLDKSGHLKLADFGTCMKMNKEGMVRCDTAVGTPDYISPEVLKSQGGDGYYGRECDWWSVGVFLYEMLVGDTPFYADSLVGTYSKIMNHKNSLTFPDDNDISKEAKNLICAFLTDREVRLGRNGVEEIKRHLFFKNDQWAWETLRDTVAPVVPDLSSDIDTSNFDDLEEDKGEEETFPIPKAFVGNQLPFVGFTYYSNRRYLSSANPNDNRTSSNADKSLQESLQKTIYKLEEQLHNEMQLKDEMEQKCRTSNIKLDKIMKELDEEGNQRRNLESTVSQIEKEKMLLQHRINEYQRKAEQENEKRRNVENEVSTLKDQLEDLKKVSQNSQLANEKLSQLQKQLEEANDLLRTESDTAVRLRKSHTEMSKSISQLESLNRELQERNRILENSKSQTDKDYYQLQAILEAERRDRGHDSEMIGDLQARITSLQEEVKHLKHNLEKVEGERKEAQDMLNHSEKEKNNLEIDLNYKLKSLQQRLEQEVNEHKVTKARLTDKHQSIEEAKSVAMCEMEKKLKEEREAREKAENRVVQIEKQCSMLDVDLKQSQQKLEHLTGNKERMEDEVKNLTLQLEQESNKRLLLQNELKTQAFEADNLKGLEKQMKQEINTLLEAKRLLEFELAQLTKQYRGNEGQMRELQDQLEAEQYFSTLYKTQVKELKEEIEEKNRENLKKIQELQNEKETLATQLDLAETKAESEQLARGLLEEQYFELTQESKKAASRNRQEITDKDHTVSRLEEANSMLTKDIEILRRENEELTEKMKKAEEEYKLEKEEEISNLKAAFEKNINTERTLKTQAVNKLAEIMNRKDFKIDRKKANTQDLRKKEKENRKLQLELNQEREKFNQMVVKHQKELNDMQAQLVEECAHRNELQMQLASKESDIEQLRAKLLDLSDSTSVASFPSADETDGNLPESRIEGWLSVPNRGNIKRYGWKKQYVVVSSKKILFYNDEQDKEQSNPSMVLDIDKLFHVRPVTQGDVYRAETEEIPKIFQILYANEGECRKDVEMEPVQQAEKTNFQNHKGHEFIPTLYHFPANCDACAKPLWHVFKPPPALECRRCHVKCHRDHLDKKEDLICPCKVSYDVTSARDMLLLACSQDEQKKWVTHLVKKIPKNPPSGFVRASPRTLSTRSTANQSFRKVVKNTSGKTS

- IC50 [1]: 0.83 nM
- IC50 [4]: 1.48 nM
SMILES: CS(=O)(=O)O.CS(=O)(=O)O.NCC(C(=O)Nc1ccc2cnccc2c1)c1ccc(COC(=O)c2ccc(CO[N+](=O)[O-])cc2)cc1 (centres undefined)
- Activity [2]: Toxic
- Activity (Oryctolagus cuniculus [3]): Active

- IC50 [1]: 25.3 nM
- IC50 [4]: 35.4 nM
SMILES: NC[C@H](C(=O)Nc1ccc2cnccc2c1)c1ccc(COC(=O)c2cccc(CO[N+](=O)[O-])c2)cc1

SMILES: Cc1ccc(C(=O)OCc2ccc([C@@H](CN)C(=O)Nc3ccc4cnccc4c3)cc2)c(C)c1
- Activity [5]: 1.33
- Activity [6]: 3
- Activity [7]: 1
- Activity [8]: 100%
- Activity [9]: 2.33
- Activity [10]: Non-Toxic
- Activity (Mus musculus [11]): Active
- Activity [12]: 3.33
- Activity [13]: 3.67
- Activity [14]: 3.67
- Activity (Mus musculus [15]): Active

- IC50 [1]: 13.1 nM
SMILES: C[C@H]1CNCCCN1S(=O)(=O)c1cccc2cncc(F)c12

- IC50 [1]: 5.15 nM
- IC50 [4]: 29 nM
SMILES: NCC(C(=O)Nc1ccc2cnccc2c1)c1ccc(COC(=O)CCCCO[N+](=O)[O-])cc1 (centres undefined)

- IC50 [1]: 2.51 nM
- IC50 [4]: 4.94 nM
SMILES: CS(=O)(=O)O.CS(=O)(=O)O.NCC(C(=O)Nc1ccc2cnccc2c1)c1ccc(COC(=O)CCCO[N+](=O)[O-])cc1 (centres undefined)
- Activity (Oryctolagus cuniculus [16]): Active
- Activity [2]: Toxic
